From patent US8008283B2, “Methods and compositions for the treatment of neuropsychiatric disorders” (Neurotherapeutics Pharma, Inc., priority 2005, dated 2011)

What was measured:
[1] = tested on: rat hippocampal slices; test: spontaneous epileptiform burst discharges across a spectrum of in vitro models in hippocampal slices (Example 69); assay type: cell-based; conditions: for spontaneous burst discharges, CA3 and CA1: high-K+ (10 mM) medium
Procedure: Sprague-Dawley rats (males and females; 25-35 days old) were decapitated, the top of the skull was rapidly removed, and the brain chilled with ice-cold oxygenated slicing medium. […] A hemisphere of brain containing hippocampus was blocked and glued (cyanoacrylic adhesive) to the stage of a Vibroslicer (Frederick Haer, Brunsick, Me.). […] In the recording chamber, the slices were perfused with oxygenated recording medium at 34-35° C. All animal procedures were conducted in accordance with NIH and University of Washington animal care guidelines.
In most slice experiments, simultaneous extracellular field electrode recordings were obtained from CA1 and CA3 areas. A bipolar tungsten stimulating electrode was placed on the Schaffer collaterals to evoke synaptically-driven field responses in CA1. Stimuli consisted of 100-300 μsec duration pulses at an intensity of four times the population-spike threshold. After discharges were evoked by a 2 second train of such stimuli delivered at 60 Hz.

[2] = tested on: hippocampal slices, areas CA1 and CA3
Procedure: Hippocampal slices were prepared from Sprague-Dawley adult rats as described previously. Transverse hippocampal slices 100 μm thick were cut with a vibrating cutter. Slices typically contained the entire hippocampus and subiculum. After cutting, slices were stored in an oxygenated holding chamber at room temperature for at least one hour before recording.
Sharp-electrodes for intracellular recordings from CA1 and CA3 pyramidal cells were filled with 4 M potassium acetate. Field recordings from the CA1 and CA3 cell body layers were acquired with low-resistance glass electrodes filled with 2 M NaCl. For stimulation of the Schaffer collateral or hilar pathways, a small monopolar tungsten electrode was placed on the surface of the slice. Spontaneous and stimulation-evoked activities from field and intracellular recordings were digitized (Neurocorder, Neurodata Instruments, New York, N.Y.) and stored on videotape. AxoScope software (Axon Instruments) on a personal computer was used for off-line analysis of data.
In some experiments, normal or low-chloride medium was used containing bicuculline.
After placement in the interface chamber, slices were superfused at approximately 1 ml/min. At this flow-rate, it took 8-10 minutes for changes in the perfusion media to be completed. All of the times reported here have taken this delay into account and have an error of approximately ±2 minutes.
Single electrical stimuli were delivered to the Schaffer collaterals, midway between areas CA1 and CA3, every 30 seconds so that the field responses in areas CA1 and CA3 could be monitored throughout the duration of each experiment.

[3] = tested on: hippocampal slices, CA1; test: comparison of low-[Cl-]o and furosemide on blockade of high-[K+]o-induced epileptiform activity, CA1 field (Example 78); assay type: cell-based, rat
From the text: In all of the following experiments, [Cl^−]o was reduced by equimolar replacement of NaCl with Na^+-gluconate. Gluconate was used rather than other anion replacements for several reasons. […]; U.S. Pat. No. 5,902,732). Third, formate, acetate, and proprionate generate weak acids when employed as Cl^− substitutes and lead to a prompt fall in intracellular pH; gluconate remains extracellular and has not been reported to induce intracellular pH shifts. Fourth, for purposes of comparison we wished to use the same anion replacement that had been used in previous studies examining the effects of low-[Cl^−]o on activity-evoked changes of the ECS.
Sprague-Dawley adult rats were prepared as previously described. Briefly, transverse hippocampal slices, 400 μm thick, were cut using a vibrating cutter. Slices typically contained the entire hippocampus and subiculum. […] Normal ACSF contained (in mmol/l): 124 NaCl, 3 KCl, 1.25 NaH2PO4, 1.2 MgSO4, 26 NaHCO3, 2 CaCl2, and 10 dextrose.
Sharp-electrodes filled with 4 M potassium acetate were used for intracellular recordings from CA1 pyramidal cells. […] For stimulation of the Schaffer collateral pathway, a small monopolar electrode was placed on the surface of the slice midway between areas CA1 and CA3. […] AxoScope software (Axon Instruments Inc.) on a PC-computer was used for off-line analyses of data. […]

[4] = tested on: rats; test: contextual fear conditioning in rats (freezing); assay type: in vivo, rat; conditions: I.V. in DMSO, furosemide 100 mg/kg, bumetanide 50 mg/kg; compared with vehicle alone; FIG. 5
Procedure: Contextual fear conditioning involves pairing an aversive event, in this case moderate foot shock, with a distinctive environment. The strength of the fear memory is assessed using freezing, a species-typical defensive reaction in rats, marked by complete immobility, except for breathing. […] However, if they are allowed to explore the distinctive environment sometime before the immediate shock, they show intense anxiety and fear when placed back into the same environment. We can take advantage of this fact and, by procedurally dividing contextual fear conditioning into two phases, we can separately study effects of treatments on memory for the context (specifically a hippocampus based process) from learning the association between context and shock or experiencing the aversiveness of the shock (which depend upon emotional response circuitry including amygdala). […] The experiment employed 24 rats. […] Each rat was again placed into the same environment for 8 min during which time freezing was measured, as an index of Pavlovian conditioned fear. […] Measurement of freezing was accomplished through an overhead video camera connected to the microcomputer and was automatically scored using a specialty piece of software, FreezeFrame (OER Inc., Reston, Va.). Total freezing time was analyzed in a one-way analysis of variance (ANOVA) test, with drug dose as the […] factor.

[5] = tested on: human patients; conditions: Haglund and Hochman, J. Neurophysiol. 2005; cited from earlier work
[6] = tested on: synchronized discharges; conditions: Hochman et al. Science 270:99-102, 1995; cited from earlier work
[7] = tested on: rats; conditions: Granados-Soto et al. Pain 2005; cited from earlier work
[8] = co-treatment with an NMDA receptor antagonist, non-NMDA receptor and Ca2+ channel antagonists together with furosemide; Collins et al. 1998; cited from earlier work
[9] = tested on: hippocampal slices; conditions: Pearce, Neuron 10:189, 1993; cited from earlier work

With `NS(=O)(=O)c1cc(C(=O)O)c(NCc2ccco2)cc1Cl` [furosemide] the “latency of block of bursting” value ([1]; 0-Ca++ experiments, 5 mM furosemide) was 15 to 20 min, the spontaneous burst discharges ([1]; 200-300 μM 4-aminopyridine) was “blocked” and the “anticonvulsant resistant bursts, entorhinal cortex” value ([1]; 3 hours of perfusion with 0-Mg++ medium, one hour after addition of furosemide) was “blocked”. For the same molecule, the “spontaneous bursting activity in both CA1 and CA3” value ([1]; all experiments) was “reversibly blocked”, the “latency of block of bursting” value ([1]; all other protocols, 2.5 mM furosemide) was 20 to 60 min and the spontaneous burst discharges ([1]; bicuculline at 50-100 μM) was “blocked”. For the same molecule, the “spontaneous burst discharges, CA3 and CA1” value ([1]; 2.5 mM furosemide, after 15 minutes of perfusion) was “increased in magnitude”, the “spontaneous burst discharges, CA3 and CA1” value ([1]; 2.5 mM furosemide, after 45 minutes of perfusion) was “blocked in a reversible manner” and the spontaneous burst discharges ([1]; removal of calcium plus extracellular chelation (0-Ca++)) was “blocked”. The spontaneous burst discharges ([1]; removal of magnesium (0-Mg++), 1 hours perfusion) was “blocked”, the “order of cessation of spontaneous bursting in CA1 and CA3” value ([2]; 2.5 mM furosemide) was “ceased in area CA1 before the bursting ceased in area CA3” and the “time CA3 continued to discharge after CA1 became silent” value ([2]; 2.5 mM furosemide or low-chloride medium) was 5 to 10 min. For the same molecule, the “field responses to stimulation of the Schaffer collaterals” value ([2]; throughout all stages of the experiments) was “evoked hyperexcited field responses in both the CA1 and CA3 cell body layers”, the “response to electrical stimulation of the Schaffer collaterals” value ([3]; after the spontaneous bursting had been blocked) was “elicited hyperexcited responses” and the “temporal sequence of effects on high-[K+]o-induced bursting, CA1 field” value ([3]; furosemide 2.5 and 5 mM, [K+]o 12 mM) was “an initial brief period of increased amplitude of field activity, and then blockade (reversible) of spontaneous field activity”. The freezing [4] was “significantly less freezing”, the “epileptic activity and normal brain activity in humans” value [5] was “able to block epileptic activity in humans while not affecting normal brain activity” and the “synchronized discharges and hyperexcited synaptic responses” value [6] was “reversibly blocked synchronized discharges without reducing hyperexcited synaptic responses”. For the same molecule, the formalin-induced nociception [7] was “reduced”, the “reduction of alcohol-dependent cerebrocortical damage” value [8] was 75-85% and the “latency of block of a component of the inhibitory currents” value [9] was less than 15 min.
